{"source": "patent US20170042908A1", "about": "“METHOD FOR TREATING GEOGRAPHIC ATROPHY ASSOCIATED WITH AGE-RELATED MACULAR DEGENERATION” (NATIONAL UNIVERSITY CORPORATION KAGAWA UNIVERSITY, priority 2014, published 2017)", "key": {"[1]": {"tested_on": "geographic atrophy (GA)", "experiment": "Clinical study: GA area by fundus autofluorescence imaging (RegionFinder)", "format": "in vivo, human", "protocol": "(§1) A prospective, randomized, placebo-controlled study was performed for forty-eight eyes with GA which had not a recurrence of exudative AND for at least 6 months after receiving the treatment for exudative AND. The eyes of the treatment group received two drops of 0.15% isopropyl unoprostone (IU) three times a day for 54 weeks. Participants were examined before starting the study (baseline) and at 4, 8, 12, 24, 36, and 54 weeks to measure GA area, the change in GA, the GA enlargement rate and the logarithm of the minimum angle of resolution (logMAR) visual acuity. The placebo group eyes received the vehicle 3 times a day.\n(§2) Two drops of the test drug or the placebo (vehicle) were administered at 5 minute intervals to the eyes three times a day, i.e. morning, afternoon, and night.\n(§3) Study duration: 54 weeks.\n(§4) The participants were examined to measure the following items at enrollment (baseline) and at 4, 8, 12, 24, 36 and 54 weeks.\nFundus autofluorescence images were obtained using BluePeak™ blue laser fundus autofluorescence (FAF) and confocal scanning laser ophthalmoscopy reflectance (OSLO). Hypofluorescent areas that reflect decreased autofluorescence were defined as GA areas. In detail, digital images obtained as above were calibrated and analyzed using RegionFinder™ software (version 2.4, Heidelberg Engineering, Germany) to define and quantify GA areas. Obtaining the fundus autofluorescence images, analyzing the obtained images and defining GA areas were performed according to the manuals of the equipment and software.\nAt each measurement time, the GA size, the change in GA area from the baseline and the GA enlargement rate from the baseline were determined."}, "[2]": {"experiment": "Clinical study: logMAR visual acuity", "format": "in vivo, human", "conditions": "U group", "protocol": "as §1, §2, §3, §4\nVisual acuity was examined and the obtained value was converted the logarithm of the minimum angle of resolution (LogMar) to give logMar visual acuity."}}}
{"smiles": "CCCCCCCC(=O)CC[C@@H]1[C@@H](C/C=C\\CCCC(=O)OC(C)C)[C@@H](O)C[C@H]1O", "note": "[isopropyl unoprostone, 13,14-dihydro-15-keto-20-ethyl F2α isopropyl ester]", "values": [{"measurement": "mean change in GA area at week 54", "setting": "[1]; U group (24 eyes), 0.15% eye drops two drops three times a day, 54 weeks, change from baseline (baseline 2.71±2.03 mm^2), p<0.001 vs placebo", "value": "0.44±0.39", "unit": "mm^2"}, {"measurement": "enlargement of GA (conclusion)", "setting": "[1]; eye drops, 54 weeks, vs placebo", "value": "could suppress the enlargement of GA"}, {"measurement": "change in geographic atrophy (GA) area (conclusion)", "setting": "[1]; patients who developed GA after treatment for exudative AMD, eye drops", "value": "statistically significant suppression"}, {"measurement": "GA enlargement rate at 54 week", "setting": "[1]; representative U group case, person with typical AMD, left eye, 0.15% eye drops, two drops three times a day, vs baseline", "value": 118, "unit": "%"}, {"measurement": "GA area, difference between U and P groups", "setting": "[1]; throughout the study", "value": "no statistically significant difference"}, {"measurement": "logMAR visual acuity, trend over time", "setting": "[2]; over the study, no statistically significant difference over the baseline", "value": "tended to improve over time"}, {"measurement": "logMAR visual acuity at week 4", "setting": "[2]; week 4, baseline 0.39±0.39, p=0.62 vs P group", "value": "0.33±0.34"}, {"measurement": "logMAR visual acuity at week 54", "setting": "[2]; week 54, baseline 0.39±0.39, p=0.27 vs P group", "value": "0.37±0.34"}]}
